Data: US9066861B2 (priority 2009, dated 2015)
Blank lines part the entries; values can stand above or below the compound they belong to.

Columns and labels:
Format in all cases: physicochemical
[1] = Assay (%) test of APIs in cream, stability study, HPLC method; conditions: in cream Batch No. SFM-01
Experimental: The stability of the product is confirmed by the stability studies performed for 3/6 months as per ICH guidelines.
APIs-stability experiments were carried out (see tables 3-20) using several products that are representative of the present invention. Tests were carried out to observe (or measure as appropriate) the physical appearance of the product, the pH value and assay of the APIs over a period of time. […] Betamethasone Valerate—0.12% (w/w) • ii. Fluticasone Propionate—0.05% (w/w) • iii. Mometasone Furoate—0.1% (w/w) • iv. Dexamethasone Acetate—0.1% (w/w) • v. Hydrocortisone Acetate—1.0% (w/w) • vi. Clobetasol Propionate—0.05% (w/w) • vii. Beclomethasone Dipropionate—0.025% (w/w) • viii. Betamethasone Dipropionate—0.05% (w/w) wherein all percentages are with respect to the final formulation.
The product used for the Stability Studies tests contained approximately 10% extra APIs (overages).

[2] = Stability analysis of raw API by stability indicating HPLC method; conditions: for Assay (%) HPLC / Percentage Drop (%) HPLC / loss in 3 Months: raw API; for Assay (%) HPLC / Percentage Drop (%) HPLC: after 3 Months
Excerpt: (§1) In both studies the * Initial denotes the results of the samples tested at the time of receipt of the API from the supplier.

[3] = Stability analysis of raw API by titration method (BP); conditions: after 3 Months
Excerpt: as §1

- Assay (%) ([1]; 25° C. 60% RH, 1st Month): 108.54%
- Assay (%) ([1]; 25° C. 60% RH, 2nd Month): 108.42%
- Assay (%) ([1]; 25° C. 60% RH, 3rd Month): 108.21%
- Assay (%) ([1]; 25° C. 60% RH, 6th Month): 107.82%
- Assay (%) ([1]; 30° C. 65% RH, 1st Month): 108.48%
- Assay (%) ([1]; 30° C. 65% RH, 2nd Month): 108.42%
- Assay (%) ([1]; 30° C. 65% RH, 3rd Month): 108.20%
- Assay (%) ([1]; 30° C. 65% RH, 6th Month): 107.75%
- Assay (%) ([1]; 40° C. 75% RH, 1st Month): 108.51%
- Assay (%) ([1]; 40° C. 75% RH, 2nd Month): 108.32%
- Assay (%) ([1]; 40° C. 75% RH, 3rd Month): 108.11%
- Assay (%) ([1]; 40° C. 75% RH, 6th Month): 107.88%
- Assay (%) ([1]; Freezthaw, 1st Month): 108.15%
- Assay (%) ([1]; Initial): 108.56%
- Assay (%) ([1]; Temperature cycling, 1st Month): 108.51%
SMILES: C[C@@H]1C[C@H]2[C@@H]3CCC4=CC(=O)C=C[C@]4(C)[C@@]3(Cl)[C@@H](O)C[C@]2(C)[C@@]1(OC(=O)c1ccco1)C(=O)CCl [Mometasone Furoate]

SMILES: CC(=O)O[C@H]1C[C@@]2(C)[C@@H](C[C@@H](O)[C@H]3[C@@]4(C)CC[C@@H](O)[C@@H](C)[C@@H]4CC[C@@]32C)/C1=C(\CCC=C(C)C)C(=O)O [Sodium Fusidate]
- Initial (%) ([2]; raw API tested at the time of receipt from the supplier, method not stated): 98.7%
- Assay (%) HPLC ([2]; 45° C. (C) closed Petri dish): 92.96%
- Percentage Drop (%) HPLC ([2]; 45° C. (C) closed Petri dish): 5.74%
- Assay (%) HPLC ([2]; 45° C. (O) open Petri dish): 92.65%
- Percentage Drop (%) HPLC ([2]; 45° C. (O) open Petri dish): 6.05%
- loss in 3 Months ([2]; 45° C. (open condition)): about 6%
- Assay (%) HPLC ([2]; RT (C) closed Petri dish): 97.67%
- Percentage Drop (%) HPLC ([2]; RT (C) closed Petri dish): 1.03%
- Assay (%) HPLC ([2]; RT (O) open Petri dish): 96.25%
- Percentage Drop (%) HPLC ([2]; RT (O) open Petri dish): 2.45%
- loss in 3 Months ([2]; room temperature (open condition)): about 2.5%
- stability as an API, Sodium Fusidate compared with Fusidic acid ([2]; raw APIs, Tables 1 and 2): significantly more stable than Fusidic acid
- Assay (%) Titration ([3]; 45° C. (C) closed Petri dish): 97.16%
- Percentage Drop (%) Titration ([3]; 45° C. (C) closed Petri dish): 1.54%
- Assay (%) Titration ([3]; 45° C. (O) open Petri dish): 97.07%
- Percentage Drop (%) Titration ([3]; 45° C. (O) open Petri dish): 1.63%
- Assay (%) Titration ([3]; RT (C) closed Petri dish): 98.85%
- Percentage Drop (%) Titration ([3]; RT (C) closed Petri dish): −0.15%
- Assay (%) Titration ([3]; RT (O) open Petri dish): 97.71%
- Percentage Drop (%) Titration ([3]; RT (O) open Petri dish): 0.99%
